Assay results reported in the NIST ThermoML archive (doi:10.1021/acs.jced.7b00507).
Numbers after ± are expanded uncertainties.

Assay: mn = molality of the nth substance listed, in mol/kg
Details: 100 kPa, Liquid, Pycnometric method

| SMILES | mass density (293.15 K, m1 = 3.129) | mass density (303.15 K, m1 = 4.532) | mass density (313.15 K, m1 = 6.615) | mass density (323.15 K, m1 = 8.465) | mass density (293.15 K, m1 = 0.6199) | mass density (303.15 K, m1 = 0.8756) | mass density (313.15 K, m1 = 1.222) | mass density (323.15 K, m1 = 1.908) |
| --- | --- | --- | --- | --- | --- | --- | --- | --- |
| O=[N+]([O-])[O-].[K+] [potassium nitrate] + O | 1167 ± 12 kg/m3 | 1217.1 ± 12 kg/m3 | 1269.4 ± 13 kg/m3 | 1321 ± 14 kg/m3 | – | – | – | – |
| [K+].[O]=[V](=[O])[O-] [potassium vanadate] + O | – | – | – | – | 1060.4 ± 11 kg/m3 | 1081.6 ± 11 kg/m3 | 1111 ± 11 kg/m3 | 1156 ± 12 kg/m3 |
